Literature values in patent US20250018217A1, “PH[…] THERAPY APPARATUS AND METHODS FOR TREATING ORAL DISEASE” (Biolux Group SA, priority 2022, published 2025).
Entries after “also recorded” stand apart in the source; their conditions may differ. Where two headings read alike, the source gives them in different places.

Tests used:
[1] = system: microbial species
[2] = daily oral supplement of 2,000 IU to 6,000 IU in adults, within 3 months

Compound: COc1cc(/C=C/C(=O)CC(=O)/C=C/c2ccc(O)c(OC)c2)ccc1O [Curcumin]
- Antimicrobial activity (in solution) ([1]; 0.75 to 5 g/l, excitation wavelength 547 nm): [50]S. mutans; also recorded: [51]L. acidophilus

Compound: Cc1cc(=[N+](C)C)cc2sc3cc(N(C)C)cc(C)c3nc1-2.[Cl-] [Dimethyl methylene blue]
- Antimicrobial activity (in solution) ([1]; 800 um, excitation wavelength 635-652): [12]A. baumannii

Compound: O=C1OC2(c3ccccc31)c1cc(I)c(O)c(I)c1Oc1c2cc(I)c(O)c1I [Erythrosine]
- Antimicrobial activity (in solution) ([1]; excitation wavelength 500-550 nm): [64]S. mutans

Compound: CN(C)c1ccc2nc3ccc(=[N+](C)C)cc-3sc2c1 [Methylene blue]
- Antimicrobial activity (in solution) ([1]; 25 ug/ml, excitation wavelength 632 nm): [8] Various

Compound: CCNc1cc2[s+]c3cc(NCC)c(C)cc3nc2cc1C.[Cl-] [New Methylene blue]
- Antimicrobial activity (in solution) ([1]; 00 uM, excitation wavelength 635-652): [17]A. baumannii

Compound: O=C([O-])c1c(Cl)c(Cl)c(Cl)c(Cl)c1-c1c2cc(I)c(=O)c(I)c-2oc2c(I)c([O-])c(I)cc12.[Na+].[Na+] [Rose Bengal]
- Antimicrobial activity (in solution) ([1]; 10 um, excitation wavelength 532 nm): [26]E. faecalis

Compound: Cc1cc2nc3ccc(N(C)C)cc3[s+]c2cc1N.[Cl-] [Toluidine blue O]
- Antimicrobial activity (in solution) ([1]; 100 mg/l, excitation wavelength 410 nm-660 nm): [21]E. coli

Compound: Phthalocynine
- Antimicrobial activity (in solution) ([1]; excitation wavelength 670 nm): [74]A. hidrophila

Compound: Sulfonic porphyrins (TPPS)
- Antimicrobial activity (in solution) ([1]; no concentration or wavelength printed (TPPS)): [42]S. aureus

Compound: vitamin D
- Blood levels of vitamin D [2]: 40 ng/mL
